Results published in the NIST ThermoML archive (doi:10.1021/acs.jced.8b00036).
Values joined by “and” are separate entries in the source; they are usually repeats but may differ in a detail not shown here. Equal values may be shown once. ± gives the expanded uncertainty stated by the source.

Details: Capillary tube (Ostwald / Ubbelohde) method

Question: For `FCC(F)(F)F` [1,1,1,2-tetrafluoroethane], which viscosity (312.75 K, 4064 kPa, Liquid) is on record?
Answer: 0.1723 ± 0.01 mPa·s

Question: What about the viscosity (312.76 K, 4069 kPa, Liquid) of the same compound?
Answer: 0.1731 ± 0.011 mPa·s

Question: What about the viscosity (312.77 K, 3061 kPa, Liquid) of the same compound?
Answer: 0.1681 ± 0.01 mPa·s

Question: And the viscosity (312.78 K, 3042 kPa, Liquid)?
Answer: 0.1684 ± 0.01 mPa·s

Question: What about the viscosity (312.78 K, 3061 kPa, Liquid) of the same compound?
Answer: 0.1682 ± 0.01 mPa·s

Question: And the viscosity (312.82 K, 4048 kPa, Liquid)?
Answer: 0.173 ± 0.011 mPa·s

Question: What about the viscosity (312.83 K, 1706 kPa, Liquid) of the same compound?
Answer: 0.1656 ± 0.01 mPa·s

Question: And the viscosity (312.96 K, 1701 kPa, Liquid)?
Answer: 0.165 ± 0.01 mPa·s

Question: What about the viscosity (313.01 K, 1763 kPa, Liquid) of the same compound?
Answer: 0.1654 ± 0.01 mPa·s

Question: What about the viscosity (313.5 K, 1796 kPa, Liquid) of the same compound?
Answer: 0.1656 ± 0.01 mPa·s

Question: And the viscosity (332.79 K, 3072 kPa, Liquid)?
Answer: 0.1279 ± 0.0078 mPa·s

Question: And the viscosity (332.79 K, 3083 kPa, Liquid)?
Answer: 0.1284 ± 0.0078 mPa·s

Question: What about the viscosity (332.8 K, 3079 kPa, Liquid) of the same compound?
Answer: 0.1282 ± 0.0078 mPa·s

Question: What about the viscosity (332.8 K, 4005 kPa, Liquid) of the same compound?
Answer: 0.1325 ± 0.0081 mPa·s

Question: And the viscosity (332.81 K, 4008 kPa, Liquid)?
Answer: 0.1324 ± 0.0081 mPa·s

Question: What about the viscosity (332.81 K, 4011 kPa, Liquid) of the same compound?
Answer: 0.1325 ± 0.0081 mPa·s

Question: What about the viscosity (354.96 K, 4007 kPa, Liquid) of the same compound?
Answer: 0.09565 ± 0.0059 mPa·s

Question: What about the viscosity (355.51 K, 4078 kPa, Liquid) of the same compound?
Answer: 0.09407 ± 0.0058 mPa·s

Question: What about the viscosity (355.94 K, 4155 kPa, Liquid) of the same compound?
Answer: 0.09335 ± 0.0057 mPa·s

Question: What does the source list for `FC(F)(F)/C=C\C(F)(F)F` [(Z)-1,1,1,4,4,4-hexafluorobut-2-ene]?
Answer: viscosity (313.83 K, 513 kPa, Liquid): 0.3037 ± 0.018 mPa·s; viscosity (313.84 K, 513 kPa, Liquid): 0.3034 ± 0.018 mPa·s; viscosity (313.84 K, 514 kPa, Liquid): 0.3036 ± 0.018 mPa·s; viscosity (313.92 K, 2053 kPa, Liquid): 0.3115 ± 0.019 mPa·s; viscosity (313.94 K, 2037 kPa, Liquid): 0.3097 ± 0.019 mPa·s; viscosity (313.94 K, 2996 kPa, Liquid): 0.3143 ± 0.019 mPa·s; viscosity (313.94 K, 3001 kPa, Liquid): 0.3146 ± 0.019 mPa·s; viscosity (313.94 K, 4041 kPa, Liquid): 0.3198 ± 0.019 mPa·s; viscosity (313.95 K, 2025 kPa, Liquid): 0.3098 ± 0.019 mPa·s; viscosity (313.95 K, 3000 kPa, Liquid): 0.3143 ± 0.019 mPa·s; viscosity (313.95 K, 4049 kPa, Liquid): 0.3197 ± 0.019 mPa·s; viscosity (313.96 K, 4002 kPa, Liquid): 0.3194 ± 0.019 mPa·s; viscosity (314.26 K, 1040 kPa, Liquid): 0.3074 ± 0.019 mPa·s; viscosity (314.27 K, 1041 kPa, Liquid): 0.3068 ± 0.019 mPa·s; viscosity (314.31 K, 1050 kPa, Liquid): 0.3081 ± 0.019 mPa·s; viscosity (331.5 K, 503 kPa, Liquid): 0.2577 ± 0.016 mPa·s; viscosity (331.5 K, 505 kPa, Liquid): 0.2579 ± 0.016 mPa·s; viscosity (331.51 K, 506 kPa, Liquid): 0.2578 ± 0.016 mPa·s; viscosity (331.57 K, 2020 kPa, Liquid): 0.2593 ± 0.016 mPa·s and 0.2599 ± 0.016 mPa·s; viscosity (331.57 K, 2033 kPa, Liquid): 0.26 ± 0.016 mPa·s; viscosity (331.81 K, 1002 kPa, Liquid): 0.2579 ± 0.016 mPa·s; viscosity (331.82 K, 1017 kPa, Liquid): 0.259 ± 0.016 mPa·s; viscosity (331.83 K, 1015 kPa, Liquid): 0.2588 ± 0.016 mPa·s; viscosity (331.84 K, 4062 kPa, Liquid): 0.2658 ± 0.016 mPa·s; viscosity (331.85 K, 4047 kPa, Liquid): 0.2652 ± 0.016 mPa·s; viscosity (331.87 K, 4059 kPa, Liquid): 0.2651 ± 0.016 mPa·s; viscosity (331.94 K, 3026 kPa, Liquid): 0.2608 ± 0.016 mPa·s; viscosity (331.94 K, 3039 kPa, Liquid): 0.2617 ± 0.016 mPa·s; viscosity (331.94 K, 3040 kPa, Liquid): 0.2617 ± 0.016 mPa·s; viscosity (353.79 K, 4019 kPa, Liquid): 0.2122 ± 0.013 mPa·s; viscosity (353.8 K, 4020 kPa, Liquid): 0.212 ± 0.013 mPa·s and 0.2117 ± 0.013 mPa·s; viscosity (353.99 K, 2066 kPa, Liquid): 0.2011 ± 0.012 mPa·s; viscosity (353.99 K, 2067 kPa, Liquid): 0.2011 ± 0.012 mPa·s; viscosity (354 K, 2064 kPa, Liquid): 0.201 ± 0.012 mPa·s; viscosity (354.08 K, 3022 kPa, Liquid): 0.2047 ± 0.012 mPa·s; viscosity (354.1 K, 3021 kPa, Liquid): 0.2032 ± 0.012 mPa·s; viscosity (354.23 K, 1032 kPa, Liquid): 0.1944 ± 0.012 mPa·s; viscosity (354.23 K, 1033 kPa, Liquid): 0.1942 ± 0.012 mPa·s; viscosity (354.24 K, 1031 kPa, Liquid): 0.193 ± 0.012 mPa·s; viscosity (374.43 K, 4050 kPa, Liquid): 0.1702 ± 0.01 mPa·s; viscosity (374.43 K, 4056 kPa, Liquid): 0.1702 ± 0.01 mPa·s; viscosity (374.44 K, 2025 kPa, Liquid): 0.1613 ± 0.0098 mPa·s; viscosity (374.44 K, 4050 kPa, Liquid): 0.1705 ± 0.01 mPa·s; viscosity (374.45 K, 2025 kPa, Liquid): 0.1618 ± 0.0098 mPa·s; viscosity (374.46 K, 2025 kPa, Liquid): 0.1611 ± 0.0098 mPa·s; viscosity (374.74 K, 3026 kPa, Liquid): 0.1632 ± 0.0099 mPa·s and 0.1645 ± 0.01 mPa·s; viscosity (374.75 K, 3026 kPa, Liquid): 0.1635 ± 0.0099 mPa·s; viscosity (374.87 K, 492 kPa, Gas): 0.013 ± 0.00082 mPa·s; viscosity (374.88 K, 492 kPa, Gas): 0.01305 ± 0.00082 mPa·s; viscosity (393.63 K, 3044 kPa, Liquid): 0.1336 ± 0.0081 mPa·s; viscosity (393.64 K, 3044 kPa, Liquid): 0.1339 ± 0.0081 mPa·s; viscosity (393.65 K, 3044 kPa, Liquid): 0.1332 ± 0.0081 mPa·s; viscosity (393.65 K, 4017 kPa, Liquid): 0.1377 ± 0.0084 mPa·s and 0.138 ± 0.0084 mPa·s and 0.1378 ± 0.0084 mPa·s; viscosity (394 K, 2016 kPa, Liquid): 0.1278 ± 0.0078 mPa·s; viscosity (394.01 K, 2016 kPa, Liquid): 0.128 ± 0.0078 mPa·s; viscosity (394.03 K, 2016 kPa, Liquid): 0.1282 ± 0.0078 mPa·s; viscosity (394.16 K, 499 kPa, Gas): 0.01348 ± 0.00085 mPa·s; viscosity (394.19 K, 499 kPa, Gas): 0.01343 ± 0.00085 mPa·s; viscosity (413.55 K, 4046 kPa, Liquid): 0.1104 ± 0.0067 mPa·s; viscosity (413.56 K, 4047 kPa, Liquid): 0.11 ± 0.0067 mPa·s; viscosity (413.63 K, 3011 kPa, Liquid): 0.103 ± 0.0063 mPa·s; viscosity (413.63 K, 3015 kPa, Liquid): 0.103 ± 0.0063 mPa·s; viscosity (413.75 K, 3010 kPa, Liquid): 0.1029 ± 0.0063 mPa·s; viscosity (413.99 K, 503 kPa, Gas): 0.01378 ± 0.00087 mPa·s; viscosity (414.21 K, 503 kPa, Gas): 0.01361 ± 0.00086 mPa·s; viscosity (414.24 K, 1014 kPa, Gas): 0.01449 ± 0.00092 mPa·s; viscosity (414.29 K, 1033 kPa, Gas): 0.01434 ± 0.00091 mPa·s and 0.01444 ± 0.00091 mPa·s; viscosity (434.12 K, 3016 kPa, Liquid): 0.07044 ± 0.0044 mPa·s and 0.07094 ± 0.0044 mPa·s; viscosity (434.13 K, 3016 kPa, Liquid): 0.07045 ± 0.0044 mPa·s; viscosity (434.23 K, 502 kPa, Gas): 0.01388 ± 0.00088 mPa·s; viscosity (434.23 K, 503 kPa, Gas): 0.01384 ± 0.00087 mPa·s; viscosity (434.28 K, 1011 kPa, Gas): 0.01451 ± 0.00092 mPa·s; viscosity (434.28 K, 1012 kPa, Gas): 0.01443 ± 0.00091 mPa·s; viscosity (434.37 K, 4014 kPa, Liquid): 0.08047 ± 0.005 mPa·s and 0.08072 ± 0.005 mPa·s and 0.08096 ± 0.005 mPa·s; viscosity (454.24 K, 506 kPa, Gas): 0.01429 ± 0.0009 mPa·s; viscosity (454.27 K, 506 kPa, Gas): 0.0143 ± 0.0009 mPa·s; viscosity (454.34 K, 1003 kPa, Gas): 0.01547 ± 0.00097 mPa·s and 0.01568 ± 0.00099 mPa·s; viscosity (454.57 K, 2031 kPa, Gas): 0.01628 ± 0.001 mPa·s; viscosity (454.58 K, 2030 kPa, Gas): 0.01633 ± 0.001 mPa·s; viscosity (473.27 K, 509 kPa, Gas): 0.02101 ± 0.0013 mPa·s; viscosity (474.67 K, 500 kPa, Gas): 0.0152 ± 0.00098 mPa·s; viscosity (474.69 K, 500 kPa, Gas): 0.01519 ± 0.00098 mPa·s; viscosity (474.82 K, 999 kPa, Gas): 0.01587 ± 0.001 mPa·s; viscosity (474.83 K, 2004 kPa, Gas): 0.0169 ± 0.0011 mPa·s; viscosity (474.84 K, 2004 kPa, Gas): 0.01661 ± 0.001 mPa·s; viscosity (474.85 K, 1000 kPa, Gas): 0.01579 ± 0.00099 mPa·s
